Earlier results on 2 compounds are cited in patent US20020022057A1, “Oral delivery of pharmaceuticals via encapsulation” (priority 2000, published 2002).

The conditions of data set [1]: sublingual versus oral.
The conditions of data set [2]: applied topically to the skin.

Consider `CC(=O)[C@H]1CC[C@H]2[C@@H]3CCC4=CC(=O)CC[C@]4(C)[C@H]3CC[C@]12C` [progesterone], for which the “sublingual applications more effective than oral applications” value in data set [1] is recorded as 50%.

`CC(=O)Oc1ccccc1C(=O)O` [Aspirin, aspirin]: the “skin reactions, including erythema and peeling” value in data set [2] is 30 % of the subjects.
